Measurements taken from patent publication US8901087B2, “Selective glycosidase inhibitors and uses thereof” (priority 2010, dated 2014).

What was measured:
human O-GlcNAcase = human O-GlcNAcase (Homo sapiens (Human), UniProt O60502); test: Fluorescence-based assay for determination of KI values for inhibition of O-GlcNAcase activity; assay type: biochemical; details: purified human O-GlcNAcase, 4-Methylumbelliferyl N-acetyl-β-D-glucosaminide substrate, pH 7.0, Cheng-Prusoff; read-out: Fluorescence-based hOGA Ki
Procedure: Assay for Determination of KI Values for Inhibition of O-GlcNAcase Activity
Experimental Procedure for Kinetic Analyses
Enzymatic reactions are carried out in a reaction containing 50 mM NaH2PO4, 100 mM NaCl and 0.1% BSA (pH 7.0) using 2 mM 4-Methylumbelliferyl N-acetyl-β-D-glucosaminide dihydrate (Sigma M2133) dissolved in ddH2O, as a substrate. The amount of purified human O-GlcNAcase enzyme used in the reaction is 0.7 nM. Test compound of varying concentrations is added to the enzyme prior to initiation of the reaction. The reaction is performed at room temperature in a 96-well plate and is initiated with the addition of substrate. […] The slope of product production is determined for each concentration of compound tested and plotted, using standard curve fitting algorithms for sigmoidal dose response curves. The values for a four parameter logistic curve fit of the data are determined.

O-GlcNAcase = O-GlcNAcase (Rattus norvegicus, UniProt Q8VIJ5); test: Cell-based ELISA for cellular activity of O-GlcNAcase inhibitors (O-GlcNAcylated protein level, RL-2 antibody); details: increase in O-GlcNAcylated protein, cells treated 24 hours, RL-2 antibody ELISA
Text: Assay for Determination of Cellular Activity for Compounds that Inhibit O-GlcNAcase Activity
Inhibition of O-GlcNAcase, which removes O-GlcNAc from cellular proteins, results in an increase in the level of O-GlcNAcylated protein in cells. An increase in O-GlcNAcylated protein can be measured by an antibody, such as RL-2, that binds to O-GlcNAcylated protein. The amount of O-GlcNAcylated protein:RL2 antibody interaction can be measured by enzyme linked immunosorbant assay (ELISA) procedures.

human O-GlcNAcase, sequence (O60502 whole entry): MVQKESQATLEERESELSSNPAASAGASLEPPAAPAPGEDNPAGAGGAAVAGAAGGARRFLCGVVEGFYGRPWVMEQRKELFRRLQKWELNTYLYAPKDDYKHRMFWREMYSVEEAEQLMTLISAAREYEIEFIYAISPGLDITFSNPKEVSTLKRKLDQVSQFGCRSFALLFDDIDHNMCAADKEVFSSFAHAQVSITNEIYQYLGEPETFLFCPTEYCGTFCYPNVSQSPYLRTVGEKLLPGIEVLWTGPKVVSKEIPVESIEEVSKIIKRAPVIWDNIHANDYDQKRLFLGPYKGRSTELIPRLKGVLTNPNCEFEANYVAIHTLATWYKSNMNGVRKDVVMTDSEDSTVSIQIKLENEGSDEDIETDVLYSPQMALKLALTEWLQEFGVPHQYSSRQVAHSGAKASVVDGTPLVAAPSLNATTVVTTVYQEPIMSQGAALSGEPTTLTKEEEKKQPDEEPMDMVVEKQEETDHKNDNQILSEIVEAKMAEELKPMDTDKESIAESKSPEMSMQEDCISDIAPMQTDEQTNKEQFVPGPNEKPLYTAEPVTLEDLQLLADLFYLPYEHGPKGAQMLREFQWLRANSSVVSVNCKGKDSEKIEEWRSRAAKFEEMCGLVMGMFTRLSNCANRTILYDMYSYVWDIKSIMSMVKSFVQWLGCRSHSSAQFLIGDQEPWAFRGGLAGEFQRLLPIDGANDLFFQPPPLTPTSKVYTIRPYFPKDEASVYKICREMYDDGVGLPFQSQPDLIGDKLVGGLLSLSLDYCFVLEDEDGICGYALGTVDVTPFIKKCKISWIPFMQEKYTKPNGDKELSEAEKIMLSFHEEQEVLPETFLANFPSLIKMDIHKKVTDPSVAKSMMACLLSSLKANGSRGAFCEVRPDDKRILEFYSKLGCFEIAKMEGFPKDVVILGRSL
O-GlcNAcase, sequence (Q8VIJ5 whole entry, looked up): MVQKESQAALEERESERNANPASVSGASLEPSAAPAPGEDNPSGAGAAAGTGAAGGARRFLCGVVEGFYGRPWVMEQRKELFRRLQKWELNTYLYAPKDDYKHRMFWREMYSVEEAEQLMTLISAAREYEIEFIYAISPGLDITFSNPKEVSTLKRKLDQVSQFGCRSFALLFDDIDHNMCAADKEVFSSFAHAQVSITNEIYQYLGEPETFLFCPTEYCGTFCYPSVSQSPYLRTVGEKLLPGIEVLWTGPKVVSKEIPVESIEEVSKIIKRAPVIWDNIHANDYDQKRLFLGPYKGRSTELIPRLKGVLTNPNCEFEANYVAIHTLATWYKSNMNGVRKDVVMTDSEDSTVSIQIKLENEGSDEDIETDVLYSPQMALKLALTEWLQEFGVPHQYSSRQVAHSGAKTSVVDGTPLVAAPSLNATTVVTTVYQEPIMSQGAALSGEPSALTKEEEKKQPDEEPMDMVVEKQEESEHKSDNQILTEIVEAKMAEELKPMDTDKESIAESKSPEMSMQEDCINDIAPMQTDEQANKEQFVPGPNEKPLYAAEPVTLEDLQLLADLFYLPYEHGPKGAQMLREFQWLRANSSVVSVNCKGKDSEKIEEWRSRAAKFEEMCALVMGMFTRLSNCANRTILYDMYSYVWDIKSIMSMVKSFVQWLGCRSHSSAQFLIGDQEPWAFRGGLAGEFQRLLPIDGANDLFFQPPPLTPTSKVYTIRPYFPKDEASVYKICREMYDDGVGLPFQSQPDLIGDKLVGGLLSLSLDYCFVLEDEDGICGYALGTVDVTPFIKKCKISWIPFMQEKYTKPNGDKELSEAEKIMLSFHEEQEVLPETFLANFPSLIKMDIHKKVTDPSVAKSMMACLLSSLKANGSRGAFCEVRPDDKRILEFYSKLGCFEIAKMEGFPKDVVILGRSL

`CN(C)C1=N[C@@H]2[C@@H](OCc3ccccc3)[C@H](COCc3ccccc3)[C@@H](C(O)C3SCCCS3)O[C@@H]2S1` (some centres unmarked) [Example 96] was tested. Which Ki (human O-GlcNAcase) did it give?
The Ki was 0.19 nM.

And the EC50 (O-GlcNAcase)?
The EC50 was 4.55 nM.
